According to ChEMBL document CHEMBL5108044, “Discovery of a Novel Potent STAT3 Inhibitor HP590 with Dual p-Tyr705/Ser727 Inhibitory Activity for Gastric Cancer Treatment” (J Med Chem, 2022):
Calls of active or inactive are those of the source. The rule behind the calls is not given here.

Tests used:
[1] = target: T1, Signal transducer and activator of transcription 3 (Homo sapiens, UniProt P40763); experiment: Inhibition of STAT3 phosphorylation at Tyr705 residue in human MKN-45 cells upto 40 nM by Western blotting analysis; type: cell-based; settings: time <= 24.0 hrs, TDE = time-dependent effect
MKN-45 [2] = experiment: Inhibition of colony formation in human MKN-45 cells assessed as reduction in number of colonies incubated for 5 to 7 days by crystal violet staining based assay; type: functional, cell-based; settings: dose <= 20.0 nM, time 5-7 day, DDE = dose-dependent effect
[3] = target: T1, Signal transducer and activator of transcription 3; experiment: Inhibition of STAT3 phosphorylation at Ser727 residue in human MKN-45 cells upto 40 nM by Western blotting analysis; type: cell-based; settings: time <= 24.0 hrs, TDE = time-dependent effect
[4] = target: T1, Signal transducer and activator of transcription 3; experiment: Inhibition of STAT3 in human GES1cells assessed as downregulation of c-myc expression at 10 to 40 nM incubated for 24 hrs by RT-PCR analysis; type: cell-based; settings: GES1, dose 10-40 nM
[5] = target: T1, Signal transducer and activator of transcription 3; experiment: Inhibition of STAT3 phosphorylation at Ser727 residue in human MKN-45 cells upto 40 nM incubated upto 24 hrs by Western blotting analysis; type: cell-based
MKN-45 [6] = experiment: Inhibition of mitochondrial respiration in STAT3 knockdown human MKN-45 cells assessed as oxygen consumption rate incubated for 80 mins […]; type: functional, cell-based
AGS [7] = experiment: Induction of apoptosis in human AGS cells assessed as viable cells at 20 nM incubated for 48 hrs by FITC-annexin V/propidium iodide staining based flow cytometry (reference value: 87.2%); type: functional; settings: read-out: Activity
Cytochrome P450 2D6 = Cytochrome P450 2D6 (Homo sapiens, UniProt P10635); experiment: Inhibition of CYP2D6 in human liver microsome; type: ADME, microsomes
[8] = Toxicity in BALB/c nude mouse xenografted with human MKN-45 cells assessed as liver damage at 25 to 50 mg/kg, po qd administered for 5 weeks by H and E staining based analysis; type: organism-based; settings: in vivo, 840 h, dose 25-50 mg/kg
AGS [9] = experiment: Induction of apoptosis in human AGS cells assessed as late apoptic cells 20 nM incubated for 48 hrs by FITC-annexin V/propidium iodide staining based flow cytometry (reference value: 9.56%); type: functional
[10] = target: T1, Signal transducer and activator of transcription 3; experiment: Inhibition of STAT3 in human AGS cells assessed as downregulation of Bcl2 expression at 10 to 40 nM incubated for 24 hrs by RT-PCR analysis; type: cell-based; settings: dose 10-40 nM
MKN-45 [11] = experiment: Potency index, ratio of IC50 for BBI608 to IC50 for test compound for antiproliferative activity against human MKN-45 cells assessed as reduction in cell viability incubated for 72 hrs by MTS assay; type: functional
AGS [12] = experiment: Induction of apoptosis in human AGS cells assessed as necrotic cells 10 nM incubated for 48 hrs by FITC-annexin V/propidium iodide staining based flow cytometry (reference value: 2.70%); type: functional
[13] = Clearance in ICR mouse plasma at 1 mg/kg, iv measured up to 24 hrs by LC-MS/MS analysis; type: ADME, organism-based
MGC-803 = experiment: Inhibition of colony formation in human MGC-803 cells assessed as reduction in number of colonies incubated for 5 to 7 days by crystal violet staining based assay; type: functional, cell-based; settings: dose <= 20.0 nM, time 5-7 day, DDE = dose-dependent effect
MKN-45 [14] = experiment: In vivo inhibition of STAT3 phosphorylation at Tyr705 residue in human MKN-45 cells xenografted in BALB/c nude mouse at 25 to 50 mg/kg, po qd administered for 5 weeks by western blot analysis; type: functional, organism-based; settings: dose 25-50 mg/kg
NIH3T3 = experiment: Antiproliferative activity against […] cells assessed as cell viability measured upto 1 uM incubated for 72 hrs by MTS assay; type: toxicity, cell-based; settings: mouse, nih3t3, 72 h
Cytochrome P450 3A4 = Cytochrome P450 3A4 (Homo sapiens, UniProt P08684); experiment: Inhibition of CYP3A4 in human liver microsome; type: ADME, microsomes
[15] = target: T1, Signal transducer and activator of transcription 3; experiment: Inhibition of STAT3 phosphorylation at Ser727 residue in human MGC-803 cells upto 40 nM incubated upto 24 hrs by Western blotting analysis; type: cell-based
[16] = target: T1, Signal transducer and activator of transcription 3; experiment: Inhibition of STAT3 in human MKN-45 cells assessed as downregulation of Survivin expression at 10 to 40 nM incubated for 24 hrs by RT-PCR analysis; type: cell-based; settings: dose 10-40 nM
[17] = target: T1, Signal transducer and activator of transcription 3; experiment: Inhibition of STAT3 phosphorylation at Tyr705 residue in human MGC-803 cells upto 40 nM by Western blotting analysis; type: cell-based; settings: time <= 24.0 hrs, TDE = time-dependent effect
AGS [18] = experiment: Induction of apoptosis in human AGS cells assessed as necrotic cells 20 nM incubated for 48 hrs by FITC-annexin V/propidium iodide staining based flow cytometry (reference value: 2.70%); type: functional
MKN-45 [19] = experiment: Inhibition of colony formation in STAT3 knockdown human MKN-45 cells assessed as reduction in number of colonies incubated for 5 to 7 days by crystal violet staining based assay; type: functional, cell-based; settings: time 5-7 day
[20] = Toxicity in BALB/c nude mouse xenografted with human MKN-45 cells assessed as heart damage at 25 to 50 mg/kg, po qd administered for 5 weeks by H and E staining based analysis; type: organism-based; settings: in vivo, 840 h, dose 25-50 mg/kg
[21] = target: Tyrosine-protein kinase JAK1 (Homo sapiens, UniProt P23458); experiment: Inhibition of JAK1 (unknown origin)
MKN-45 [22] = experiment: Induction of apoptosis in human MKN-45 cells assessed as viable cells at 20 nM incubated for 48 hrs by FITC-annexin V/propidium iodide staining based flow cytometry (reference value: 68%); type: functional; settings: read-out: Activity
[23] = target: T1, Signal transducer and activator of transcription 3; experiment: Binding affinity to human STAT3 transfected in MKN-45 cells assessed as change in melting temperature at 5 uM by thermal shift assay; type: cell-based
[24] = target: T1, Signal transducer and activator of transcription 3; experiment: Inhibition of STAT3 phosphorylation at Ser727 residue in human MGC-803 cells incubated upto 24 hrs by Western blotting analysis; type: cell-based; settings: dose <= 40.0 nM, DDE = dose-dependent effect
[25] = Inhibition of ATP production in human MKN-45 cells incubated for 20 to 24 hrs by ATP assay kit method; type: functional, cell-based
[26] = target: T1, Signal transducer and activator of transcription 3; experiment: Inhibition of STAT3 in human AGS cells assessed as downregulation of cyclin D1 expression incubated up to 24 hrs by western blot analysis; type: cell-based; settings: dose <= 40.0 nM, DDE = dose-dependent effect
MKN-45 [27] = experiment: Induction of apoptosis in human MKN-45 cells assessed as viable cells at 5 nM incubated for 48 hrs by FITC-annexin V/propidium iodide staining based flow cytometry (reference value: 68%); type: functional; settings: read-out: Activity
MKN-45 [28] = experiment: In vivo inhibition of STAT3 in human MKN-45 cells xenografted in BALB/c nude mouse assessed as reduction in cyclin D1 gene expression at 25 to 50 mg/kg, po qd administered for 5 weeks by Western blot analysis; type: functional, organism-based; settings: dose 25-50 mg/kg
[29] = target: T1, Signal transducer and activator of transcription 3; experiment: Inhibition of STAT3 phosphorylation at Tyr705 residue in human MGC-803 cells incubated upto 24 hrs by Western blotting analysis; type: cell-based; settings: dose <= 40.0 nM, DDE = dose-dependent effect
[30] = target: T1, Signal transducer and activator of transcription 3; experiment: Inhibition of STAT3 in human MGC-803 cells assessed as downregulation of cyclin D1 expression up to 40 nM by western blot analysis; type: cell-based; settings: time <= 24.0 hrs, TDE = time-dependent effect
[31] = target: T1, Signal transducer and activator of transcription 3; experiment: Inhibition of STAT3 in human MKN-45 cells assessed as downregulation of c-myc expression at 10 to 40 nM incubated for 24 hrs by RT-PCR analysis; type: cell-based; settings: dose 10-40 nM
[32] = Antiproliferative activity against human HPNE cells assessed as cell viability measured upto 1 uM incubated for 72 hrs by MTS assay; type: toxicity, cell-based; settings: htert-hpne

T1 sequence (P40763 whole entry): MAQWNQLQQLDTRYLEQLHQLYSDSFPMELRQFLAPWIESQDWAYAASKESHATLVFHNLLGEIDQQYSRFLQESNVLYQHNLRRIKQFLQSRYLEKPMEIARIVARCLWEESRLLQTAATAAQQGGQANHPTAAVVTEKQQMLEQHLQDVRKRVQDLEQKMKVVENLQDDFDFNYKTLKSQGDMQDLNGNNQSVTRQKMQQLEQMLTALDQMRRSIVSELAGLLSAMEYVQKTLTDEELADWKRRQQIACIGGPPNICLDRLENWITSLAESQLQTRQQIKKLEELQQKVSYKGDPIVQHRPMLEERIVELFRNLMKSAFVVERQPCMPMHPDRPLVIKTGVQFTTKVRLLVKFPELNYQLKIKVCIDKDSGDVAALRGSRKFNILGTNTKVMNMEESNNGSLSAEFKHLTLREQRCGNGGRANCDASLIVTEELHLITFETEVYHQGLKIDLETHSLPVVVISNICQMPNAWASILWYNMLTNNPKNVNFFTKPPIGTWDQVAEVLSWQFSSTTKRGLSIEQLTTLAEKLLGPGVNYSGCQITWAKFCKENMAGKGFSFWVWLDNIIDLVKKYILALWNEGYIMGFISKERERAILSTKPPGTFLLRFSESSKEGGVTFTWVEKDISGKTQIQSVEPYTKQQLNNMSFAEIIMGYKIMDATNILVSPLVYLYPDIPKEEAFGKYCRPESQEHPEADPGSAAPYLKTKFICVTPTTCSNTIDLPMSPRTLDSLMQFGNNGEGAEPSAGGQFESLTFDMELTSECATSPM
Cytochrome P450 3A4, sequence (P08684 whole entry): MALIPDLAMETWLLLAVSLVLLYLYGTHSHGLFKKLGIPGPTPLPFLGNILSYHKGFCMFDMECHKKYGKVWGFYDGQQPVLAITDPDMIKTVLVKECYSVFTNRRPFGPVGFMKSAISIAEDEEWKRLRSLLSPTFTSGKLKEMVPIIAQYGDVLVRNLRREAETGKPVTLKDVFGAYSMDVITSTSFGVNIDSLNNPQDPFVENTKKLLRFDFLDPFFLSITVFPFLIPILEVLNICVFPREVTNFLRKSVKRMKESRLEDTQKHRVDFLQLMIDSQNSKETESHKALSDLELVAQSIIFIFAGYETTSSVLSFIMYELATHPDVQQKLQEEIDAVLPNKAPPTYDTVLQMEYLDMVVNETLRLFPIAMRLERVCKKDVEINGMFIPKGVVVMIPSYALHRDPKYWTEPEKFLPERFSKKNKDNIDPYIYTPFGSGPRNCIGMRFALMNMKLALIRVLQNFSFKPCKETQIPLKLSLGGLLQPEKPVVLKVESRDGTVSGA
Cytochrome P450 2D6, sequence (P10635 whole entry): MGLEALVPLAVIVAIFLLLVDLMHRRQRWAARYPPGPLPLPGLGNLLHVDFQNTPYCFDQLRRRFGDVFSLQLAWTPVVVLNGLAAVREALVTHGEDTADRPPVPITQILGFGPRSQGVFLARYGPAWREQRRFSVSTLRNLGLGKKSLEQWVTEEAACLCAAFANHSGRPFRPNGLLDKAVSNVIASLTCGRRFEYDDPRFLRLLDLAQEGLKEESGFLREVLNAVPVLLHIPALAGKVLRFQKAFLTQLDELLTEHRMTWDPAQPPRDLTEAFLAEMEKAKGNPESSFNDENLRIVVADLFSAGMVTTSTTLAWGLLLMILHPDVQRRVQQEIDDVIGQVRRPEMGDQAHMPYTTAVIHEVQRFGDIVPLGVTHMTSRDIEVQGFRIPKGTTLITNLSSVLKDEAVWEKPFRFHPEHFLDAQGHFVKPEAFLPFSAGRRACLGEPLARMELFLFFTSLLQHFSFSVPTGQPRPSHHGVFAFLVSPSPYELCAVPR
Tyrosine-protein kinase JAK1, sequence (P23458 whole entry): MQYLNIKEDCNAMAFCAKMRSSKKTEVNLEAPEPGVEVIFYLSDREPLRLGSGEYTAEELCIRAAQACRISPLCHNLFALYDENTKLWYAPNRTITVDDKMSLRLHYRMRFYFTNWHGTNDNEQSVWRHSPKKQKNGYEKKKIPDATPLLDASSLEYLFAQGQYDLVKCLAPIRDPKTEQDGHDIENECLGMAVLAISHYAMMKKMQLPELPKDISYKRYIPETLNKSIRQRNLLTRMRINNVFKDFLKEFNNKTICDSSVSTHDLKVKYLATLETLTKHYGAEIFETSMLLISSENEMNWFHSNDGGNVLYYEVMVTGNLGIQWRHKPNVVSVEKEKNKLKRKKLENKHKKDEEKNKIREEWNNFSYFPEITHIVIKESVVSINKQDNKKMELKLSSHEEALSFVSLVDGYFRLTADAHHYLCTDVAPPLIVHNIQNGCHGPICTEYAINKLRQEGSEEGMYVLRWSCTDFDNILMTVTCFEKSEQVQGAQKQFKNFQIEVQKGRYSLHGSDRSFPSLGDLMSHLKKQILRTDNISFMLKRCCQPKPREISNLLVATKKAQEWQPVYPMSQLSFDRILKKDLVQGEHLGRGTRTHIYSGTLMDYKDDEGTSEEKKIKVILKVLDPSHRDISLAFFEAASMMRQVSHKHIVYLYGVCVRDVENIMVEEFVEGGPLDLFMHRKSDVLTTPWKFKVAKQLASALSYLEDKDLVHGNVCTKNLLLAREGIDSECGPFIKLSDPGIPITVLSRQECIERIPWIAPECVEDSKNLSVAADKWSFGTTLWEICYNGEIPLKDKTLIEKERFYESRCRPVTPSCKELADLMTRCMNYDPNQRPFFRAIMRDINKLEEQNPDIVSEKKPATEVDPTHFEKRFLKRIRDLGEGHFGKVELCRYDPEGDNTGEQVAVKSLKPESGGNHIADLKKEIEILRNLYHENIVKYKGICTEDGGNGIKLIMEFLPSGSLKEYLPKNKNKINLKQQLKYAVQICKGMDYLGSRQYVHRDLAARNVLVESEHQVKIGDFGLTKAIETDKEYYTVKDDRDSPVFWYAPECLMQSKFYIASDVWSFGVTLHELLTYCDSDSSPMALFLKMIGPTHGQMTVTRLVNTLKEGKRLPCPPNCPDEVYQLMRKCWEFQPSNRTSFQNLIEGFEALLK

## O=C(c1ccc(-c2noc(-c3ccc(C(F)(F)F)cc3)n2)cc1)N1CCN(Cc2ccc(OCC(F)(F)F)cc2)CC1
[1]
  inhibition: Tde
MKN-45 [2]
  inhibition: Dde
[3]
  inhibition: Tde
[4]
  inhibition: Active
[5]
  inhibition: 100%
MKN-45 [6]
  inhibition: Active
AGS [7]
  viability at 0.02 µM: 50.3%
Cytochrome P450 2D6
  IC50: > 50 µM
[8]
  Activity: Non-Toxic
AGS [9]
  Activity: 27.1%
[10]
  inhibition: Active
MKN-45 [11]
  Ratio IC50: 30
AGS [12]
  Activity: 4.79%
[13]
  clearance: 7.33 mL/min/kg
MGC-803
  inhibition: Dde
MKN-45 [14]
  inhibition: Active
NIH3T3
  Activity: Non-Toxic
Cytochrome P450 3A4
  IC50: > 50 µM
[15]
  inhibition: 100%
[16]
  inhibition: Active
[17]
  inhibition: Tde
AGS [18]
  Activity: 0.8%
MKN-45 [19]
  inhibition: Active
[20]
  Activity: Non-Toxic
[21]
  IC50: > 10 µM
MKN-45 [22]
  viability at 0.02 µM: 60.7%
[23]
  Activity: Active
[24]
  inhibition: Dde
[25]
  IC50: 0.0247 µM
[26]
  inhibition: Dde
MKN-45 [27]
  viability at 0.005 µM: 69.6%
MKN-45 [28]
  inhibition: Active
[29]
  inhibition: Dde
[30]
  inhibition: Tde
[31]
  inhibition: Active
[32]
  Activity: Non-Toxic
